# “Also recorded” adds a separate entry of the source.
# What was measured:
# hairless mouse [1] = assay: Inhibition of UVB-induced pigmentation: oral tocopherol acetate plus transdermal dihydrocapsiate; format: in vivo
# Method: The synergistic effect of tocopherol acetate and dihydrocapsiate was confirmed using a pigmentation induction mouse based on the inhibition of pigmentation induced by ultraviolet beam (UVB).
# (1) Before the start of ultraviolet beam (UVB) irradiation, tocopherol acetate (200 μl) as administered orally once a day for 3 days to a hairless mouse (12-week-old, female) using a gavage needle.
# (2) After the 3-day oral administration in (1), the hairless mouse was irradiated with UVB (80-90 mJ/cm^2).
# (3) Thirty minutes after the irradiation in (2), tocopherol acetate (200 μl) was administered orally to the hairless mouse using a gavage needle. Five minutes after the oral administration, 28 μl of 5 wt % dihydrocapsiate dissolved in 50 wt % ethyl alcohol was applied to the hairless mouse on the left side of the back.
# Treatments (2) and (3) were performed 3 times a week (Monday, Wednesday and Friday) and treatment (3) alone was performed twice a week (Tuesday and Thursday). The skin on the back of the mouse after about 3 weeks from the start of the UV irradiation was visually evaluated.
# hairless mouse [2] = assay: Inhibition of UVB-induced pigmentation: oral cystine plus transdermal dihydrocapsiate; format: in vivo; details: 5% dihydrocapsiate (50% aqueous ethanol) applied plus oral cystine 50 mg in 150 μl 0.5% CMC; about 3 and about 4 weeks; vs 50% aqueous ethanol application group
# Method: An experiment similar to that in Example 2 was performed using cystine as an oral agent. In particular, 50 mg of cystine was dissolved in 150 μl of a 0.5% aqueous CMC (carboxymethylcellulose) solution and used as an oral administration sample, and 5% dihydrocapsiate (50% aqueous ethanol solution) was used as a dermal application sample. Ultraviolet beam (UVB) was utilized as an irradiation source without preliminary administration, and the synergistic effect afforded by the oral administration agent and the blood circulation promoter on the blackness suppressive effect on the pigmentation of the back of a mouse was confirmed according to the experiment schedule similar to that in Example 2.
# Suppression of pigmentation induction in the dihydrocapsiate application group was visually evaluated.
# Visual evaluation criteria • 0: No pigmentation • 1: Spots of pale pigmentation found in a part • 2: Spots of pale pigmentation found on the entire back • 3: Spots of pigmentation found on the entire back (partly deep pigmentation was found) • 4: Spots of deep pigmentation found on the entire back • 5: Deep pigmentation found on the entire back
# [3] = Dissolution of sample in liquid paraffin; format: physicochemical; details: 1 wt % and 5 wt %; evaluated in a dispersion state
# [4] = system: hairless mouse (HR-1, female); assay: Vasodilating (blood circulation improving) effect, red spot on auricles, visual evaluation; format: in vivo; details: for blood circulation promoting action, intensity and sustainability (conclusion): auricle red spot test, 1 wt % and 5 wt %
# From the text: The vasodilating effects (blood circulation improving effect) of capsiate and capsaicin were compared using auricles of a hairless mouse. A sample was applied to the right ear of a hairless mouse (HR-1, female) and a control was applied to the left ear thereof, and the development of a red spot was visually evaluated. (1) Capsiate (1 wt % or 5 wt % dissolved in liquid paraffin) (2) Capsaicin (1 wt % or 5 wt % dispersed in liquid paraffin Liquid paraffin
# [5] = system: hairless mouse (HR-1, female); assay: Increase in topical concentration of systemically administered trypan blue dye by topical capsiate; format: in vivo
# Method: A hairless mouse (HR-1, female) was intraperitoneally injected with a trypan blue solution (0.4%, 300 μl). After injection, 100 μl of 5% capsiate (dissolved in an ethanol solution) was applied uniformly using a pipet chip to the right side of the back. As a control, 100 μl of ethanol alone was uniformly applied to the left side of the back by a similar method.
# [6] = 1 wt % in liquid paraffin, right ear, control liquid paraffin on left ear
# [7] = 5 wt % in liquid paraffin, from 30 min onward after application
structure (smiles),measurement,setting,value
COc1cc(COC(=O)CCCCCCC(C)C)ccc1O [dihydrocapsiate],"UVB-induced pigmentation of back skin, visual evaluation, combined use","hairless mouse [1]; 28 μl of 5 wt % dihydrocapsiate on left side of back plus oral tocopherol acetate 200 μl, UVB 80-90 mJ/cm^2, about 3 weeks, vs non-application right side",less pigmentation; also recorded: can suppress induction of pigmentation by UVB
same,"UVB-induced pigmentation of back skin, visual evaluation, dihydrocapsiate alone","hairless mouse [1]; dihydrocapsiate applied alone, no oral tocopherol acetate, UVB irradiation",UVB irradiation induced pigmentation in the application site; also recorded: failed to suppress induction of pigmentation
same,pigmentation suppressive effect after treatment is ceased,"hairless mouse [1]; tocopherol acetate administration and dihydrocapsiate application ceased, UVB irradiation continued, dihydrocapsiate application site",disappears and induction of pigmentation begins
same,"UVB-induced pigmentation induction, visual evaluation (score 0-5, FIG. 9)",hairless mouse [2],clearly suppressed
"CC(=O)Oc1c(C)c(C)c2c(c1C)CCC(C)(CCC[C@H](C)CCC[C@H](C)CCCC(C)C)O2 (some centres unmarked) [tocopherol acetate, reference compound]","UVB-induced pigmentation of back skin, visual evaluation, tocopherol only control","hairless mouse [1]; oral tocopherol acetate 200 μl, solvent (50 wt % ethyl alcohol) applied instead of dihydrocapsiate, right vs left side of back",a clear difference was not observed; also recorded: failed to suppress induction of pigmentation
"COc1cc(CNC(=O)CCCC/C=C/C(C)C)ccc1O [capsaicin, reference compound]",dissolution in liquid paraffin,[3],did not dissolve completely
same,"development of a red spot on auricle, visual evaluation",[4]; [6],presence of a red spot
same,"development of a red spot on auricle, visual evaluation",[4]; [7],clear red spot
same,"blood circulation promoting action, intensity and sustainability (conclusion)",[4],strong blood circulation promoting action and long sustainability
same,time over which red spot maintained the initial state,"[4]; capsaicin, even at 1 wt %, auricle",> 2 h
COc1cc(COC(=O)CCCC/C=C/C(C)C)ccc1O [capsiate],pigmentation of blue dye in the vicinity of the auricle,"[5]; 5% capsiate in ethanol applied to auricle, trypan blue i.p., 30-60 minutes after application",pigmentation of a blue dye was observed
same,skin pigmentation (infiltration) of blue dye at application site,"[5]; 100 μl of 5% capsiate in ethanol on back, trypan blue i.p., 30 minutes after application",clear skin pigmentation (infiltration) of the blue dye was observed
same,skin pigmentation of blue dye derived from trypan blue at application site,"[5]; 100 μl of 5% capsiate in ethanol on right side of back vs ethanol alone on left, trypan blue 0.4% 300 μl i.p., 15-20 minutes after application",confirmed only on the capsiate application side
same,"development of a red spot on auricle, visual evaluation",[4]; [6],no development of a red spot
same,"development of a red spot on auricle, visual evaluation",[4]; [7],clear red spot
same,"blood circulation promoting action, intensity and sustainability (conclusion)",[4],mild sustainability and intensity
same,time until developed red spot completely disappeared,"[4]; capsiate in liquid paraffin, auricle",about 2 hr

# Reference: patent US20080182894A1, “METHOD OF PROVIDING PREPARATION FOR TOPICAL APPLICATION AND SUPPLEMENT MEETING CLIENT'S NEEDS” (AJINOMOTO CO., INC., priority 2005, published 2008)
